Values quoted from earlier work as cited in article PMC12299890 (Pharmaceuticals, 2025).
Where two headings read alike, the source gives them in different places.

Design: method as in PMID 27121673
Details: cited from earlier work

Structure (SMILES): O[C@H]1[C@H](O)[C@@H](O)[C@H](O)[C@@H](O)[C@@H]1O [SCI, scyllo-inositol]
- Time of maximum plasma concentration (after the last dose, 2000 mg two times a day for 10 days): 2.9 h
- AUC of SCI in CSF (day 1, oral 2000 mg two times a day): 49.4 µg·h/mL
- AUC of SCI in CSF (day 11, oral 2000 mg two times a day): 153.0 µg·h/mL
- Increase of brain concentration of SCI during the study (oral 2000 mg two times a day for 10 days): 58–76%
- Side effects reported (oral 2000 mg two times a day): No side effects
- Time of peak SCI plasma concentration (plasma, after first oral dose of 2000 mg twice a day): 3.8 h
